In publication PMC11191317, “PNSC928, a plant-derived compound, specifically disrupts CtBP2-p300 interaction and reduces inflammation in mice with acute respiratory distress syndrome” (Biology Direct, 2024):

Experiments:
[1] = system: MPAEpiC, RAW264.7, FL83B, TKPTS, and HL-1 cells; experiment: Cell viability assay in normal cell lines; format: cell-based, mouse; settings: for Cell growth (cell viability) at lower doses: co-treated with LPS, MTOB 5 mM, NSC95397 10 µM, C646 3 µM, A-485 5 nM, TPCA1 150 nM, BOT64 1 µM; for Cell growth (cell viability assay): assessed every 24 h for 5 days
Text: Mouse pulmonary alveolar epithelial cells (MPAEpiC) were sourced from ScienCell Research Laboratories (Carlsbad, CA, USA; #M3200-57). The mouse macrophage cell line RAW 264.7 (#TIB-71), the mouse liver hepatocyte cell line FL83B (#CRL-2390), and the mouse kidney epithelial-like cell line TKPTS (#CRL-3361) were sourced from the American Type Culture Collection (ATCC) (Manassas, VA, USA). Additionally, the mouse cardiac muscle cell line HL-1 (SCC065) was acquired from Sigma-Aldrich. All cell lines were maintained in Dulbecco’s Modified Eagle Medium (DMEM) (Thermo Fisher; #A1048901) fortified with 10% fetal bovine serum (FBS) (Thermo Fisher; #A5256701) and a combination of 100 U/mL penicillin and streptomycin (Thermo Fisher; #15,140,122). Cells were cultured in a 37 °C incubator with 5% CO2, and the medium was changed every 2–3 days. For targeted gene manipulation, cells were transfected with gene-specific short hairpin RNAs (shRNAs) (Table S1) or plasmids (Table S2). Transfection was facilitated using the Lipofectamine 3000 Transfection Reagent (Thermo Fisher; #L3000001) as per the manufacturer’s recommended protocol.
(§1) For LPS treatment, different knockdown (KD) cell lines—Control^KD, CtBP2^KD, p300^KD, and p65^KD, all derived from MPAEpiC—were seeded in 12-well plates and cultured at 37 °C until reaching 80% confluence. The cells were then treated with 200 ng/mL of LPS for 6 h, washed three times with PBS, and subjected to the required experiments. For experiments involving inhibitors of CtBP2, p300, and NF-κB, as well as the compound PNSC928, MPAEpiC, RAW264.7, FL83B, TKPTS, and HL-1 cells were seeded in 12-well plates and cultured at 37 °C to reach 80% confluence. Cells were then cotreated with 200 ng/mL LPS along with varying concentrations of the following chemicals: MTOB (0, 5, 10, or 20 mM), NSC95397 (0, 10, 20, or 40 µM), C646 (0, 3, 6, or 12 µM), A-485 (0, 5, 10, or 20 nM), TPCA1 (0, 150, 300, or 600 nM), BOT64 (0, 1, 2, or 4 µM), or PNSC928 (0, 11.8, 23.6, or 47.2 µM). After 6 h of treatment, cells were washed three times with PBS before proceeding with further experiments.
Fig. 5 Determination of PNSC928 cytotoxicity and evaluation of PNSC928 effects on the expression levels of CtBP2/p300/NF-κB target genes. (A-E) Cell viability assessment. Five cell lines, including MPAEpiC (A), RAW264.7 (B), FL83B (C), TKPTS (D), and HL-1 (E) were treated with varying concentrations of PNSC928 ([…]). Cell viability was assessed every 24 h for 5 days. (F-I) Effects of PNSC928 on gene expression levels. The RAW264.7 cells were co-treated with LPS and PNSC928 (23.6 and 47.2 µM) for a duration of 6 h. Subsequently, RNA isolation and RT-qPCR analysis were performed to quantify mRNA levels of various genes. (F) The mRNA levels of IL-1B, IL-6, IL-15, IL-18, TNFA, and IFNG. (G) The mRNA levels of CDH1, CDKN1A, CDKN2A, CHRD, PAX6, and BAX. (H) The mRNA levels of NOD2, CCL2, CXCL10, CXCL12, MMP1, and STAT1 mRNA levels, (I) The mRNA levels of MIP2, CCR5, GM-CSF, COX2, and iNOS. n = 3 for each experiment. ns: no significant difference. **P < 0.01; ***P < 0.001
Five cell lines (MPAEpiC, RAW264.7, FL83B, TKPTS, and HL-1) were treated with MTOB (5 and 10 mM), NSC95397 (10 and 20 μM), C646 (3 and 6 μM), A-485 (5 and 10 nM), TCPA1 (150 and 300 nM), and BOT-64 (1 and 2 μM). Cell viability was assessed every 24 hours for 5 days. n=3 for all experiments. *P<0.05.

[2] = system: MPAEpiC and RAW264.7 cells; experiment: RT-qPCR of CtBP2/p300/NF-κB target genes in MPAEpiC and RAW264.7 cells cotreated with LPS and inhibitors; format: cell-based, mouse; settings: LPS cotreatment, 6 h; for Expression of IL-1B, IL-6, IL-15, IL-18, TNFA, NOD2, CCL2, CXCL10, CXCL12, MMP1, and STAT1 / Expression of other genes under investigation (CtBP2 and NF-κB targets): p300 inhibitors; for Expression levels of IL-1B, IL-6, IL-8, IL-15, TNFA, MIP2, CCR5, GM-CSF, VEGF, COX2, and iNOS / Expression of the other studied genes (CtBP2 and p300 targets): NF-κB inhibitors; for Expression of IL-1B, IL-6, IL-15, IL-18, TNFA, CDH1, CDKN1A, CDKN2A, CHRD, PAX6, and BAX / Expression of the remaining genes (p300 and NF-κB targets): CtBP2 inhibitors
Method: as §1
RNA was isolated from both cultured cells and mouse lung tissues utilizing the TRIzol Reagent (Invitrogen; Shanghai, China; #15,596,018) in adherence to the manufacturer’s protocol. For each sample, 500 ng of RNA was employed for the synthesis of complementary DNA (cDNA) leveraging the High-Capacity cDNA Reverse Transcription Kit (Thermo Fisher; #4,368,814). Gene expression quantification was carried out using the SYBR GreenER qPCR SuperMix Universal (Thermo Fisher; #1176202K) in combination with the specific primers delineated in Table S3. Subsequent analysis normalized the expression levels to β-Actin, utilizing the 2^−ΔΔCt method.
The RAW264.7 cells were co-treated with LPS and the following compounds: 5 mM MTOB, 10 μM NSC95397, 3 μM C646, 5 nM A-485, 150 nM TPCA1, or 1 μM BOT64 for a duration of 6 hours. Subsequently, RNA isolation and RT-qPCR analysis were performed to quantify mRNA levels of various genes.
The MPAEpiC cells were co-treated with LPS and the following compounds: 5 mM MTOB, 10 μM NSC95397, 3 μM C646, 5 nM A-485, 150 nM TPCA1, or 1 μM BOT64 for a duration of 6 hours. Subsequently, RNA isolation and RT-qPCR analysis were performed to quantify mRNA levels of various genes.

CNC(=O)Nc1ccc2c(c1)CC[C@@]21OC(=O)N(CC(=O)N(Cc2ccc(F)cc2)[C@@H](C)C(F)(F)F)C1=O [A-485]
Cell growth (cell viability) at lower doses [1]: notable inhibition of cell growth
Expression of IL-1B, IL-6, IL-15, IL-18, TNFA, NOD2, CCL2, CXCL10, CXCL12, MMP1, and STAT1 [2]: significantly modulated
Expression of other genes under investigation (CtBP2 and NF-κB targets) [2]: no discernible impact

CC1(C)CC(=O)c2sc(=Nc3ccccc3)oc2C1 [BOT64]
Cell growth (cell viability) at lower doses [1]: notable inhibition of cell growth
Expression levels of IL-1B, IL-6, IL-8, IL-15, TNFA, MIP2, CCR5, GM-CSF, VEGF, COX2, and iNOS [2]: dose-dependent alteration
Expression of the other studied genes (CtBP2 and p300 targets) [2]: without affecting

CC1=NN(c2ccc(C(=O)O)cc2)C(=O)/C1=C\c1ccc(-c2cc(C)c(C)cc2[N+](=O)[O-])o1 [C646]
Cell growth (cell viability) at lower doses [1]: notable inhibition of cell growth
Expression of IL-1B, IL-6, IL-15, IL-18, TNFA, NOD2, CCL2, CXCL10, CXCL12, MMP1, and STAT1 [2]: significantly modulated
Expression of other genes under investigation (CtBP2 and NF-κB targets) [2]: no discernible impact

CSCCC(=O)C(=O)O [MTOB]
Cell growth (cell viability) at lower doses [1]: notable inhibition of cell growth
Expression of IL-1B, IL-6, IL-15, IL-18, TNFA, CDH1, CDKN1A, CDKN2A, CHRD, PAX6, and BAX [2]: dose-dependent reversal
Expression of the remaining genes (p300 and NF-κB targets) [2]: remained relatively unchanged

O=C1C(SCCO)=C(SCCO)C(=O)c2ccccc21 [NSC95397]
Cell growth (cell viability) at lower doses [1]: notable inhibition of cell growth
Expression of IL-1B, IL-6, IL-15, IL-18, TNFA, CDH1, CDKN1A, CDKN2A, CHRD, PAX6, and BAX [2]: dose-dependent reversal
Expression of the remaining genes (p300 and NF-κB targets) [2]: remained relatively unchanged

CC(=CCCC1=CCC(C2COC(=O)C2)OC1O)CCC1=C(C)CCCC1(C)C (centres unmarked) [PNSC928]
Cell growth (cell viability assay) ([1]; PNSC928 at 47.2 µM): slight inhibition of cell growth
Cell growth (cell viability assay) ([1]; PNSC928 at lower concentrations (≤ 23.6 µM), all tested cell lines): did not inhibit cell growth

NC(=O)Nc1sc(-c2ccc(F)cc2)cc1C(N)=O [TPCA1]
Cell growth (cell viability) at lower doses [1]: notable inhibition of cell growth
Expression levels of IL-1B, IL-6, IL-8, IL-15, TNFA, MIP2, CCR5, GM-CSF, VEGF, COX2, and iNOS [2]: dose-dependent alteration
Expression of the other studied genes (CtBP2 and p300 targets) [2]: without affecting
